Measurements published in ChEMBL document CHEMBL1134929, “Synthesis and biological activity of potent heterocyclic thiol-based inhibitors of endothelin-converting enzyme-1” (Bioorg Med Chem Lett, 2002).
Values belong to the compound of their own block, whether it stands above or below them.

Columns and labels:
[1] = molecular target: T1, Endothelin-converting enzyme 1 (Homo sapiens, UniProt P42892); assay: In vitro inhibition of Endothelin-converting enzyme 1.
T1 sequence (P42892 whole entry): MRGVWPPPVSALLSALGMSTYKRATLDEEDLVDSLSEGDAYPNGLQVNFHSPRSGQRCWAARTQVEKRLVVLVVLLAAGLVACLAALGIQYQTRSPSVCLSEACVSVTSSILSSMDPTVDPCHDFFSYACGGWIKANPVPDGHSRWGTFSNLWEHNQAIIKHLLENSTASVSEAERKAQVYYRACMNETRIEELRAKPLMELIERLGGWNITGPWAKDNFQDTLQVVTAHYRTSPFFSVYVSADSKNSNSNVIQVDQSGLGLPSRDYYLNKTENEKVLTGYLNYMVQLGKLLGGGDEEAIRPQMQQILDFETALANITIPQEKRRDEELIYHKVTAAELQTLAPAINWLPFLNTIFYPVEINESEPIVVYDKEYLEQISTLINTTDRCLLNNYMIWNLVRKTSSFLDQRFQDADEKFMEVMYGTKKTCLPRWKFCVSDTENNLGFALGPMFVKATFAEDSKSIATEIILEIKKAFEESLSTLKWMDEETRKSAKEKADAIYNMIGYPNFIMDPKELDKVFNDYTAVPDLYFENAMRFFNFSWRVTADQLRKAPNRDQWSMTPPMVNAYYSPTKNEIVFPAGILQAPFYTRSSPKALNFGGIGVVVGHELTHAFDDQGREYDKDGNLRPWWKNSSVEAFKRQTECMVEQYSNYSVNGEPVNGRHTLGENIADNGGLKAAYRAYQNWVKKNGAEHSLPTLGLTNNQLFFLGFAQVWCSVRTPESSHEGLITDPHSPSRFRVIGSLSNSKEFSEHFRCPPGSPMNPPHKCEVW

[2] = tested on: Rattus norvegicus; assay: Compound was evaluated for its ability to inhibit the Endothelin 1 induced pressor response in anesthetized rats iupon oral administration of 3 mg/kg at 4 hr post dosing; format: functional
[3] = tested on: Rattus norvegicus; assay: Compound was evaluated for its ability to inhibit the Endothelin 1 induced pressor response in anesthetized rats upon oral administration of 3 mg/kg at 0.5 hr post dosing; format: functional
[4] = tested on: Rattus norvegicus; assay: Compound was evaluated for its ability to inhibit the Endothelin 1 induced pressor response in anesthetized rats upon oral administration of 3 mg/kg at 2 hr post dosing; format: functional
[5] = tested on: Rattus norvegicus; assay: Compound was evaluated for its ability to inhibit the Endothelin 1 induced pressor response in anesthetized rats upon oral administration of 3 mg/kg at 8 hr post dosing; format: functional
[6] = tested on: Rattus norvegicus; assay: Compound was evaluated for its ability to inhibit the Endothelin 1 induced pressor response in rats upon oral administration of 3-30 mg/kg at 2 hr post dosing; format: functional
[7] = tested on: Rattus norvegicus; assay: Compound was evaluated for its ability to inhibit Endothelin 1 induced increase in mean arterial pressure (MAP) after 15 min of dosing (20 mg/kg) in rats.; format: functional, Artery
[8] = tested on: Rattus norvegicus; assay: Compound was evaluated for its ability to inhibit the Endothelin 1 induced pressor response in anesthetized rats intravenous administration of 10 mg/kg; format: functional

SMILES: COC(=O)[C@H](Cc1ccc(-c2cccs2)nc1)NC(=O)C1(NC(=O)[C@H](CC(C)C)SC(C)=O)CCCC1
inhibition in vivo at 3 mg/kg [2]: 70%
inhibition in vivo at 3 mg/kg [3]: 90%
inhibition in vivo at 3 mg/kg [4]: 82%
inhibition in vivo at 3 mg/kg [5]: 34%
Inhibition [6]: 65%

SMILES: CC(C)C[C@H](S)C(=O)NC1(C(=O)N[C@@H](Cc2ccc(-c3cccs3)nc2)C(=O)O)CCCC1
IC50 [1]: 9.5 nM
Increase in MAP [7]: 77%
inhibition in vivo at 10 mg/kg [8]: 61%

SMILES: CC(C)[C@H](S)C(=O)NC1(C(=O)N[C@@H](Cc2ccc(-c3ccccc3)cc2)C(=O)O)CCCC1
inhibition in vivo at 10 mg/kg [8]: 40%

Results, then the compound that gave them:

IC50 [1]: 64 nM
SMILES: CC(C)[C@H](S)C(=O)NC1(C(=O)NC(Cc2ccc(-c3cccc(N)c3)nc2)C(=O)O)CCCC1 (stereo partly specified)

IC50 [1]: 39 nM
SMILES: CC(C)[C@H](S)C(=O)NC1(C(=O)NC(Cc2ccc(-c3ccoc3)nc2)C(=O)O)CCCC1 (stereo partly specified)
